Data published in patent US4693884A, “Technetium-99m triphosphonates and tetraphosphonates for the scintigraphic visualization of res-containing organs and lymph vessels, and a process for their preparation” (Hoechst Aktiengesellschaft, priority 1982, dated 1987).

Experiments:
[1] = Example 7: change in activity over the abdominal cavity followed with gamma camera (ROI technique); format: in vivo, dog (beagle); conditions: ear vein
Protocol: (§1) A labeling unit prepared as in Example 6 is made ready for injection with 5 ml of physiologic saline containing 10 mCi of ^99m Tc-pertechnetate. 1 ml of this solution is injected into the ear vein of a dog (beagle) weighing 18 kg, and the change in activity with time over the abdominal cavity is followed using a gamma camera by the ROI technique. It emerges that the uptake of activity by the liver is complete after about 10 min. The lung and kidneys are not imaged.

[2] = Accumulation of phosphoric acid derivatives investigated as technetium-99m diagnostic agents (bone, liver, RES); conditions: in vivo
Source text: It is possible to use phosphoric acid derivatives, particularly organic phosphonic acid derivatives, for bone scintigraphy. Many compounds have been investigated in the search for derivatives suitable as a technetium-99m diagnostic agent for bone.

[3] = Example 6: distribution of activity over the organs in rats, PTP; format: in vivo, Sprague-Dawley rats; conditions: 30 min after injection; femoral vein; mean, n=6
Protocol: 3.5 g of 1,1,3,3-propanetetraphosphonic acid (PTP) are dissolved in 250 ml of double-distilled water, and the solution is adjusted to pH 6 with 1N NaOH. 210 mg of SnCl2.2H2 O, which are dissolved in 4.2 ml of 0.2N HCl, are added to this solution, and the pH is again adjusted to 6. The mixture is made up to 350 ml and individual 1 ml portions are prepared. (All the operations up to preparation of the individual portions are carried out under protective N2 gas.) The contents are frozen and freeze-dried. One unit contains 10 mg of PTP and 0.6 mg of SnCl2.2H2 O.
After storing for some weeks, the lyophilizate is dissolved in 10 ml of physiologic saline which contains 2 mCi of ^99m Tc-pertechnetate. After 30 min, Sprague-Dawley rats (n=6) weighing about 200 g each receive 0.1 ml of this solution injected into the femoral vein. The animals are sacrificed with ether 30 min after injection, and the distribution of the activity over the organs is determined. The mean figures below result (as percentage of the dose administered): […]

[4] = Example 7: elimination from the blood and renal excretion; format: in vivo, dog (beagle)
Protocol: as §1
The elimination from the blood and the renal excretion are also determined on the same animal. […] About 2.3% of the administered activity is excreted with the urine within the first 8 hours.

[5] = Organ distribution of 99mTc-labeled substances in rats 30 minutes after injection as a function of the amount of substance administered; format: in vivo; conditions: for Blood/ml / Kidneys / Liver / Lung / Remainder of body / Spleen / Thyroid / tissue uptake at 0.5 h: 30 min after injection, n = 3; for tissue uptake at 0.5 h: rat, femur, iv, 0.05 mg
Protocol: Assuming that 2-20 mg of TPB, ETP, PTP or phytate are administered to humans, and assuming that the weight of human is 80 kg, this corresponds to an amount administered of 25-250 μg/kg of body weight. Calculating on the basis of the body weight of rats weighing 200 g, then administration of 5-50 μg of TPB, ETP, PTP or phytate per rat exactly reflects the relationships.
Organ distribution of ^99m Tc TPB, ^99m TC ETP and ^99m Tc
phytate in rats (n = 3) 30
minutes after injection as a function of the amount of substance
(all data as a percentage of the amount of activity administered)

[6] = Comparison of 99mTc TPB, 99mTc PTP and 99mTc phytate after intravenous injection to dogs; format: in vivo; conditions: intravenous, dogs
[7] = second amount column (printed 50 μg)
[8] = third amount column (printed 50 μg)

## O=P(O)(O)C(CC(P(=O)(O)O)P(=O)(O)O)P(=O)(O)O [PTP, propane-1,1,3,3-tetraphosphonic acid]
[1]
  time at which uptake of activity by the liver is complete: about 10 min
[2]
  accumulation in bone: virtually not at all
  accumulation in the liver: very preferentially accumulated in the liver
[3]
  Kidneys: 0.067 percentage of the dose adminis
  Liver: 94.0 percentage of the dose adminis
  Remainder of body: 4.8 percentage of the dose adminis
  Spleen: 1.9 percentage of the dose adminis
  Thyroid: 0.034 percentage of the dose adminis
  bladder + urine: 0.023 percentage of the dose adminis
  blood (1 ml): 0.083 percentage of the dose adminis
  bone: 0.7 percentage of the dose adminis
  lungs: 0.23 percentage of the dose adminis
[4]; ear vein, first phase
  clearance from the blood, half-life t1: 3.25 min
  share of phase t1 in clearance from the blood: 97%
[4]; ear vein, second phase
  clearance from the blood, half-life t2: 20.3 min
  share of phase t2 in clearance from the blood: 2.4%
[4]; ear vein, third phase
  clearance from the blood, half-life t3: 500 min
  share of phase t3 in clearance from the blood: 0.6%
[4]; within the first 8 hours
  administered activity excreted with the urine: About 2.3 % of the administered activity
[5]; (50 μg)
  Blood/ml: 0.055 percentage of the amount of ac
  Kidneys: 0.16 percentage of the amount of activity administered
  Liver: 91.8 percentage of the amount of activity administered
  Lung: 0.30 percentage of the amount of activity administered
  Remainder of body: 9.3 percentage of the amount of activity administered
  Spleen: 1.31 percentage of the amount of activity administered
  Thyroid: 0.05 percentage of the amount of activity administered
  tissue uptake at 0.5 h: 0.052 %ID/g
[5]; [7]
  Blood/ml: 0.11 percentage of the amount of ac
  Kidneys: 0.37 percentage of the amount of activity administered
  Liver: 84.2 percentage of the amount of activity administered
  Lung: 0.45 percentage of the amount of activity administered
  Remainder of body: 16.0 percentage of the amount of activity administered
  Spleen: 1.23 percentage of the amount of activity administered
  Thyroid: 0.04 percentage of the amount of activity administered
  tissue uptake at 0.5 h: 0.088 %ID/g
[5]; [8]
  Blood/ml: 0.086 percentage of the amount of ac
  Kidneys: 0.38 percentage of the amount of activity administered
  Liver: 82.7 percentage of the amount of activity administered
  Lung: 0.43 percentage of the amount of activity administered
  Remainder of body: 18.4 percentage of the amount of activity administered
  Spleen: 1.10 percentage of the amount of activity administered
  Thyroid: 0.05 percentage of the amount of activity administered
  tissue uptake at 0.5 h: 0.089 %ID/g
[5]; all amounts of substance investigated
  accumulation of activity in the kidneys, blood, femur and remainder of the body compared with phytate: clearly lower than with phytate
[5]; deduction from the animal experiments
  suitability as diagnostic agent for visualization of RES-containing organs compared with 99mTc phytate: unambiguously superior
[6]; 30 min after injection
  excretion of activity with the urine: 0.05 % of the test dose
[6]
  excretion of activity with the urine, compared with phytate: markedly less
[6]; compared with phytate
  decrease in activity via the liver after accumulation in the liver is complete: slower
